# Test results: US20120010075A1 (priority 2009, published 2012)
# Read-outs that look alike come from different tables or passages of the source.
# Tests used:
# [1] = system: Leptosphaeria nodorum (LEPTNO); test: In vitro fungitoxicity of hydrazones with and without copper towards Leptosphaeria nodorum (Example 26); assay type: cell-based; conditions: 72 h at 25° C.; for LEPTNO % Inhn. Plus Copper Observed: copper-plus medium (CuCl2.2H2O)
# Phytophthora infestans [2] = assay type: in vivo, Phytophthora infestans on tomato; conditions: hydrazone 50 ppm + 50 μM CuCl2.2H2O, applied 24 h before inoculation, assessed 7 days after inoculation, tomato
# [3] = system: Leptosphaeria nodorum (LEPTNO); test: Isolated metal-hydrazone complexes versus parent hydrazones, in vitro, Leptosphaeria nodorum (Example 31, Table 7); assay type: cell-based; conditions: Parastagonospora nodorum; 0.1 μg/mL; copper-minus medium; 72 h
# [4] = system: Leptosphaeria nodorum (glume blotch of wheat); test: Cu-hydrazone complexes versus parent hydrazones against glume blotch of wheat (Example 32, Table 8); assay type: in vivo, Leptosphaeria nodorum on wheat (cultivar Yuma); conditions: Parastagonospora nodorum, 200 ppm spray, inoculated after 24 h
# Alternaria solani = test: Compound 16 and copper materials against tomato early blight (Example 37, Tables 17-20); assay type: in vivo, Alternaria solani on tomato (Outdoor Girl)
# [5] = system: Colletotrichum lagenarium; test: Compound 16 and copper materials against cucumber anthracnose (Example 37, Tables 21-24); assay type: in vivo, Colletotrichum lagenarium on cucumber (Bush Pickle)
# Phytophthora capsici = test: In vitro fungitoxicity of hydrazones with and without copper towards Phytophthora capsici (Example 28, Table 3); assay type: cell-based; conditions: 48 h; for % Inhn Plus copper Observed: copper-plus AS medium (CuCl2, 50 μM); for inhibition of growth at 0.039 µg/mL / inhibition of growth at 0.05 µg/mL: Phytophthora capsici, copper-minus AS medium, read-out: % Inhn Minus copper Observed
# Phytophthora infestans [6] = assay type: in vivo, Phytophthora infestans on tomato (Outdoor Girl)
# Ustilago maydis = test: In vitro fungitoxicity of hydrazones with and without copper towards Ustilago maydis (Example 29, Table 4); assay type: cell-based; conditions: 1 μg/mL, 48 h; for % Inhn. Plus copper Observed: copper-plus medium (CuCl2, 10 μM); for inhibition of growth at 1 µg/mL: Mycosarcoma maydis, copper-minus medium, read-out: % Inhn. Minus copper Observed
# [7] = system: Septoria tritici isolate USA-184; test: In vitro fungitoxicity of hydrazones with and without copper towards Septoria tritici (Example 30, Table 5); assay type: cell-based; conditions: Zymoseptoria tritici, 0.05 μg/mL
# [8] = Parastagonospora nodorum, 72 h, compound 0.05 μg/mL, copper-minus medium, read-out: LEPTNO % Inhn. Minus Copper Observed
# [9] = Colby formula, CuCl2, read-out: % Inhibition Plus copper Predicted
# [10] = copper-minus medium, 90 h, read-out: % Inhibition Minus copper Observed
# [11] = copper-plus medium CuCl2, 90 h, read-out: % Inhibition Plus copper Observed
Structure (SMILES),"inhibition of growth at 0.05 µg/mL [1, 8] [%]",LEPTNO % Inhn. Plus Copper Observed ([1]; compound 0.05 μg/mL) [%],TLB % Control (Phytophthora infestans [2]) [%],inhibition at 0.1 µg/mL [3] [%],pest or weed control at 200 ppm [4] [%],% Inhn Plus copper Observed (Phytophthora capsici; 0.039 μg/mL) [%],inhibition of growth at 0.039 µg/mL (Phytophthora capsici; 0.039 μg/mL) [%],melting point [°C],further results
O=C(N/N=C/c1cc(Cl)cc(Cl)c1O)c1ccc([N+](=O)[O-])cc1 [Example 76],0,97.0,89.8,92.8,0,–,–,–,–
O.O.[Cl][Cu][Cl] [CuCl2•2H2O],–,–,–,–,–,–,–,–,% Control of Tomato Early Blight (Alternaria solani; copper material 10 μM alone): 0.0%; % Control of Tomato Early Blight (Alternaria solani; copper material 50 μM alone): 0.0%; % Control of Tomato Early Blight (Alternaria solani; copper material 200 μM alone): 50.4%; % Control of Tomato Early Blight (Alternaria solani; copper material 400 μM alone): 72.5%; % Control of Tomato Early Blight (Alternaria solani; copper material 800 μM alone): 83.3%; % Control of Cucumber Anthracnose ([5]; copper material 10 μM alone): 9.6%; % Control of Cucumber Anthracnose ([5]; copper material 50 μM alone): 1.4%; % Control of Cucumber Anthracnose ([5]; copper material 200 μM alone): 37.2%; % Control of Cucumber Anthracnose ([5]; copper material 400 μM alone): 76.2%; % Control of Cucumber Anthracnose ([5]; copper material 800 μM alone): 90.0%
O=C(N/N=C/c1cc(Cl)cc(Cl)c1O)c1ccccc1Br [Example 84],5.6,95.5,83.6,6.7,37,95.0,47.5,–,–
Cc1ccccc1C(=O)N/N=C/c1cc(Cl)cc(Cl)c1O [Example 77],7.6,96.1,55.5,10.6,0,–,–,–,–
O=C(N/N=C/c1cc(Cl)cc(Cl)c1O)c1cc(Cl)ccc1Cl [Example 83],5.9,98.0,60.6,27.9,38,96.2,27.9,189 to 191,–
O=C(N/N=C/c1cc(Cl)cc(Cl)c1O)c1cccc(Cl)c1 [Example 70],19.6,98.2,93.1,29.4,0,–,–,–,–
O.O.O.O.O.O=S(=O)([O-])[O-].[Cu+2] [CuSO4•5H2O],–,–,–,–,–,–,–,–,% Control of Tomato Early Blight (Alternaria solani; copper material 10 μM alone): 0.0%; % Control of Tomato Early Blight (Alternaria solani; copper material 50 μM alone): 7.1%; % Control of Tomato Early Blight (Alternaria solani; copper material 200 μM alone): 54.4%; % Control of Tomato Early Blight (Alternaria solani; copper material 400 μM alone): 64.1%; % Control of Tomato Early Blight (Alternaria solani; copper material 800 μM alone): 71.6%; % Control of Cucumber Anthracnose ([5]; copper material 10 μM alone): 1.4%; % Control of Cucumber Anthracnose ([5]; copper material 50 μM alone): 0.0%; % Control of Cucumber Anthracnose ([5]; copper material 200 μM alone): 61.3%; % Control of Cucumber Anthracnose ([5]; copper material 400 μM alone): 75.7%; % Control of Cucumber Anthracnose ([5]; copper material 800 μM alone): 87.1%
O=C(N/N=C/c1cc(Cl)cc(Cl)c1O)c1ccccc1 [Compound 16],–,–,–,–,–,–,–,–,% Control of Tomato Late Blight (Phytophthora infestans [6]; hydrazone 10 μM alone): 1.5%; % Control of Tomato Late Blight (Phytophthora infestans [6]; hydrazone 50 μM alone): 11.3%; % Control of Tomato Late Blight (Phytophthora infestans [6]; hydrazone 200 μM alone): 21.4%; % Control of Tomato Late Blight (Phytophthora infestans [6]; hydrazone 400 μM alone): 25.7%; % Control of Tomato Early Blight (Alternaria solani; hydrazone 10 μM alone): 3.9%; % Control of Tomato Early Blight (Alternaria solani; hydrazone 50 μM alone): 8%; % Control of Tomato Early Blight (Alternaria solani; hydrazone 200 μM alone): 28.4%; % Control of Tomato Early Blight (Alternaria solani; hydrazone 400 μM alone): 32.4%; % Control of Cucumber Anthracnose ([5]; hydrazone 10 μM alone): 10%; % Control of Cucumber Anthracnose ([5]; hydrazone 50 μM alone): 33.8%; % Control of Cucumber Anthracnose ([5]; hydrazone 200 μM alone): 63.8%; % Control of Cucumber Anthracnose ([5]; hydrazone 400 μM alone): 70.8%
O=C(N/N=C/c1cc(C(F)(F)F)ccc1O)c1ccccc1 [Example 277],1.9,97.5,86.4,0.6,–,–,–,214 to 217,"% Inhn Plus copper Observed (Phytophthora capsici; 0.050 μg/mL): 88.2%; inhibition of growth at 0.05 µg/mL (Phytophthora capsici; 0.050 μg/mL): 0%; % Inhn. Plus copper Observed (Ustilago maydis): 83.5%; inhibition of growth at 1 µg/mL (Ustilago maydis): 1.7%; inhibition at 0.05 µg/mL [7, 9]: 3.6%; inhibition at 0.05 µg/mL [7, 10]: 3.6%; inhibition at 0.05 µg/mL [7, 11]: 88%"
O=C(N/N=C/c1cc(Cl)cc(Cl)c1O)c1c(Cl)cccc1Cl [Example 43],–,–,68.8,3.6,0,90.3,54.2,250 to 252,"inhibition of growth at 0.156 µg/mL ([1]; Parastagonospora nodorum, 72 h, compound 0.156 μg/mL, copper-minus medium, read-out: LEPTNO % Inhn. Minus Copper Observed): 14.2%; LEPTNO % Inhn. Plus Copper Observed ([1]; compound 0.156 μg/mL): 75.4%"
O=C(N/N=C/c1cc(Cl)cc(Cl)c1O)c1ccccc1[N+](=O)[O-] [Example 96],1.2,93.6,78.2,10.7,0,91.9,55.2,–,–
O=C(N/N=C/c1cc(Cl)cc(Cl)c1O)c1ccccc1O [Example 69],19.3,96.9,90.8,32.4,25,–,–,–,"% Inhn Plus copper Observed (Phytophthora capsici; 0.050 μg/mL): 87.6%; inhibition of growth at 0.05 µg/mL (Phytophthora capsici; 0.050 μg/mL): 0%; % Inhn. Plus copper Observed (Ustilago maydis): 96.2%; inhibition of growth at 1 µg/mL (Ustilago maydis): 0%; inhibition at 0.05 µg/mL [7, 9]: 0%; inhibition at 0.05 µg/mL [7, 10]: 0%; inhibition at 0.05 µg/mL [7, 11]: 96.7%"
O=C(N/N=C/c1cc(Cl)cc(Cl)c1O)c1ccc(OC(F)(F)F)cc1 [Example 100],8.2,97.0,74.2,24.7,0,88.8,10,220 to 229,–
